Test in all cases: NCI tumour cell line growth inhibition, 48 h
For assay [1], the system named is OVCAR-4 ovarian.
Assay [2] relates to MDA-N.
For assay [3], the system named is OVCAR-8 ovarian.
For assay [4], the system named is UO-31 renal.
Assay [5] has as its system OVCAR-5 ovarian.
Assay [6] deals with LXFL 529 NSCLC.
The subject of assay [7] is HOP-18 NSCLC.
The test system of assay [8] is XF 498 CNS.
The test system of assay [9] is SNB-78 CNS.
The test system of assay [10] is M19-MEL melanoma.
The test system of assay [11] is DMS 273 small cell lung.
Assay [12] has as its system DLD-1 colon.
In assay [13] the test system is DMS 114 small cell lung.
For assay [14], the system named is KM20L2 colon.

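Dose response: 5 concentrations. Exposure: 48 h. Format: 96-well plates. Endpoint: linear interpolation; highest concentration if not reached. The concentration for full growth arrest is given as TGI.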 Some results are limits rather than exact numbers.

For the compound `O=C1Nc2ccccc2/C1=N/N1C(=O)/C(=C/c2ccccc2S)N=C1c1ccccc1`, the TGI in [1], in [2], in [3], in assay [4] and in assay [5] was above 100 µM in each case.

As to `CNc1cccc2c1C(C)C[C@]1(C)C(=O)Nc3ccccc3[C@H]21` (stereo not given in full), the TGI was 35.9 µM in [1]; 69.9 µM in [2]; 39.1 µM in assay [3]; 52.4 µM in assay [4]; above 100 µM in assay [5].

Consider `Cn1c(-c2cccs2)cc(-c2ccsc2)c1-c1cccs1`, for which the TGI in [1], in [2], in assay [3], in [4] and in [5] was above 100 µM each time.

Consider `O=C1O/C(=C(/Cl)c2c3ccccc3cc3ccccc23)c2ccccc21`, for which the TGI is 90.3 µM in assay [1]; above 100 µM in assay [2]; 69.9 µM in assay [3]; above 100 µM in assay [4]; above 100 µM in assay [5].

For `CC1CN=C(NS(=O)(=O)c2cc(C(=O)Nc3ccccc3)c(Cl)cc2S)NN1` (stereo not given), the TGI in assay [1] is above 100 µM; in assay [2] it was 71.5 µM; in [3], above 100 µM; in [4] it was above 100 µM; in assay [5], above 100 µM.

Take `Cc1c(-c2ccccc2)c(C#N)c2nnn(C)c(=O)n12`: the TGI in [1], in assay [2], in assay [3], in assay [4] and in [5] was above 100 µM each time.

As for `Cc1cc(C)nc(NS(=O)(=O)c2ccc(Nc3nnc(/C=C/c4c(O)ccc5ccccc45)c(=O)n3N)cc2)n1`, the TGI was determined as 85.2 µM in assay [1]; 81.6 µM in assay [2]; 87.2 µM in assay [3]; 86.3 µM in assay [4]; 75.4 µM in [5].

For the compound `Cc1ccc(S(=O)(=O)NC(=O)NCC(N)=O)cc1`, the TGI in [1], in assay [2], in assay [3], in [4] and in assay [5] was above 100 µM in each case.

Take `COC(=O)C1=C(C(=O)OC)C(OO)(c2ccccc2)OC1=O` (stereo not given): the TGI in [1], in [2], in [3], in assay [4] and in assay [5] was above 100 µM in each case.

On to `COCCNC1CCC(=O)c2[nH]c3ccccc3c21` (stereo not given), for which the TGI in assay [1], in assay [2], in assay [3], in [4] and in assay [5] was above 100 µM throughout.

Regarding `CC[C@H]1C=CCC[C@@]2(C[C@@H]3CC[C@H]4[C@@H](C(=O)OCCCCCCCCCCCCCCCC(=O)N(CCCNC(C)=O)C[C@H](CCNC(C)=O)OC(C)=O)[C@@]5(CCC[C@@H](C)O5)NC(=[N+]34)N2)O1`, the TGI in assay [1] was determined as 3.16 µM; in assay [2], 3.05 µM; in assay [3] it was 2.9 µM; in [4], 3.16 µM; in assay [5], 2.96 µM.

As for `CC(CC(C)[C@H]1CCC2[C@H]3C(CC(=O)[C@@]21C)[C@@]1(C)CCC(O)C[C@H]1C[C@@H]3O)C(=O)O` (stereo not given in full), the TGI in [1], in assay [2], in assay [3], in assay [4] and in assay [5] was above 100 µM each time.

On to `CCOC(=O)C(C)c1nc2cc(C(F)(F)F)ccc2[nH]c1=O` (stereo not given), for which the TGI in assay [1], in assay [2], in [3], in assay [4] and in assay [5] was above 100 µM each time.

Regarding `CN1C(=O)C(C#N)C2C[C@@]1(C)Oc1ccccc12` (stereo not given in full), the TGI in assay [1], in assay [2], in assay [3], in [4] and in assay [5] was above 100 µM throughout.

On to `CC1=NN(C(=O)CC(=O)Nc2ccc(Cl)cc2)C(=O)C1N=Nc1ccc(S(=O)(=O)c2ccc(N=NC3C(=O)N(C(=O)CC(=O)Nc4ccc(Cl)cc4)N=C3C)cc2)cc1` (stereo not given), for which the TGI in assay [1], in [2], in [3], in assay [4] and in assay [5] was above 100 µM each time.

In the case of `CC(C)N(C(=O)C12C3(C(=O)C(C)(C)C)C4C5(C#N)C3C1(C(=O)C(C)(C)C)C5C42C(=O)C(C)(C)C)C(C)C` (stereo not given), the TGI in assay [1], in assay [2], in assay [3], in assay [4] and in assay [5] was above 100 µM throughout.

Consider `CC(C)(C)OC(=O)NC(Cc1ccc(OCc2ccccc2)cn1)C(N)=O` (stereo not given), for which the TGI in [1], in assay [2], in assay [3], in assay [4] and in assay [5] was above 100 µM each time.

As for `COc1cc(/C=C2\CC(C)C/C(=C\c3ccc(O)c(OC)c3)C2=O)ccc1O` (stereo not given), the TGI came out at 8.96 µM in assay [1]; 7.37 µM in assay [2]; 32.4 µM in assay [3]; 5.41 µM in [4]; 40.8 µM in assay [5].

Take `CC1(C)N([O-])[N+](=O)C1(Br)c1ccccc1` (stereo not given): the TGI in assay [1], in assay [2], in assay [3], in [4] and in [5] was above 100 µM each time.

In the case of `N#CCCN(CCCN(C(=O)Nc1ccc(NC(=O)N(CCCN(CCC#N)C(N)=O)c2ccccc2)cc1)c1ccccc1)C(N)=O`, the TGI in [1], in assay [2], in assay [3], in [4] and in [5] was above 100 µM in each case.

On to `C=C(C)CCN(C(=O)OC(C)(C)C)c1cc(C(C)C)co1`, for which the TGI in assay [1], in assay [2], in [3], in assay [4] and in assay [5] was above 100 µM in each case.

As for `CC1(C)CC2C(/C1=N/O)C1(C)CCCC2(C)C1O` (stereo not given), the TGI in [1], in [2], in assay [3], in assay [4] and in [5] was above 100 µM throughout.

As for `CN(C(=O)c1cc2c(s1)sc1c(=O)n(C)c3ccccc3c12)c1ccccc1`, the TGI was above 100 µM in [1]; above 100 µM in assay [2]; above 100 µM in assay [3]; 24.5 µM in assay [4]; above 100 µM in assay [5].

As to `COC(=O)/C(C#N)=C(/NCc1ccccc1)Nc1ccccc1`, the TGI in assay [1], in assay [2], in assay [3], in [4] and in assay [5] was above 100 µM each time.

In the case of `O=C(/C=C/c1ccccc1Br)c1ccccc1`, the TGI in assay [1] came to 6.03 µM; in [2] it was 18.4 µM; in assay [3], 8.31 µM; in assay [4] it was 11.3 µM; in assay [5], 34.2 µM.

For `O=C1OC(C2Cc3ccc4c(c3C2=O)CCCC4)c2ccccc21` (stereo not given), the TGI in [1], in [2], in assay [3], in [4] and in [5] was above 100 µM each time.

Turning to `COc1ccc(C(c2cc(OC)c(OC)c(OC)c2)N2C(=O)CCC2C(=O)O)cc1` (stereo not given), the TGI in assay [1] was above 100 µM; in [2], 56.9 µM; in [3], above 100 µM; in [4], above 100 µM; in [5], above 100 µM.

Regarding `Oc1ccccc1-c1n[nH]c(-c2ccccc2O)n1`, the TGI in [1], in assay [2], in assay [3], in [4] and in [5] was above 100 µM each time.

Take `CC(C)(C)CN1[C@@H]2CCCC[C@H]2N(CC(C)(C)C)P1(=O)C(O)/C=C/c1ccccc1` (stereo not given in full): the TGI in assay [1], in assay [2], in assay [3], in assay [4] and in assay [5] was above 100 µM each time.

As to `CN(C)CCN=C1Nc2ccccc2C(=O)N2CSCC12` (stereo not given), the TGI in assay [1], in [2], in assay [3], in assay [4] and in assay [5] was above 100 µM each time.

For the compound `CC(C(=O)O)C1Nc2ccccc2NC1=O` (stereo not given), the TGI in assay [1], in assay [2], in assay [3], in assay [4] and in assay [5] was above 100 µM in each case.

In the case of `O=C(NN1C(=O)C(Cl)C1c1cccc(Cl)c1)c1ccccc1O` (stereo not given), the TGI in assay [6] is above 100 µM; in assay [1] it was above 100 µM; in assay [7] it was 80.7 µM; in [8] it was 86.7 µM; in assay [3], above 100 µM; in [9], above 100 µM. In addition, the TGI in [10], in assay [4] and in assay [11] was above 100 µM throughout.

Consider `CN(C)c1cccc(/C=C(\C#N)c2ccccc2)c1`, for which the TGI is 98 µM in assay [1]; 0.161 µM in assay [2]; 40 µM in assay [3]; above 100 µM in assay [4]; 64 µM in assay [5].

As for `CCOC(=O)CNC(=O)CNC(=O)CNC(=O)CNNc1c(OCc2ccccc2)c(=O)c1=O`, the TGI in assay [1], in [2], in [3], in assay [4] and in [5] was above 100 µM in each case.

For `C/C(=C(/C)c1cc[n+](C)cc1)c1cc[n+](C)cc1`, the TGI in assay [6], in assay [1], in assay [7], in assay [3], in assay [12] and in [9] was above 75 µM throughout. The TGI was 50.3 µM in [13]; above 75 µM in assay [4]; above 75 µM in [5]; above 75 µM in [11]; above 75 µM in [14].

Turning to `[O-]/[N+](=N/c1ncc(-c2ccccc2)cn1)c1ncc(-c2ccccc2)cn1`, the TGI in assay [1], in assay [2], in assay [3], in assay [4] and in assay [5] was above 100 µM throughout.

As for `CNC(=O)OCc1nc(N=[N+]=[N-])n(C)c1COC(=O)NC`, the TGI in assay [1] was above 100 µM; in assay [2], above 100 µM; in [3], above 100 µM; in assay [4] it was above 10 µM; in assay [5], above 100 µM.

In the case of `CCC1(CC)C(=O)NN(C(=O)c2ccc(Cl)cc2)C1=O`, the TGI in assay [1], in assay [2], in [3], in [4] and in assay [5] was above 100 µM in each case.

Regarding `CCOC(=O)CON=c1c2ccccc2ccc2ccccc12`, the TGI in [1], in [2], in assay [3], in [4] and in assay [5] was above 100 µM each time.

In the case of `CC(C)(C)Cc1cc(O)ccc1O`, the TGI in [1], in assay [2], in assay [3], in assay [4] and in [5] was above 100 µM in each case.

For the compound `COc1cc(OC)c2nc(C)c3c(c2c1)OCC3`, the TGI in [1], in [2], in [3], in [4] and in assay [5] was above 100 µM each time.

Source of the values: PubChem BioAssay (NCI).
